# Assay results reported in patent publication US20240342138A1, “MICROTUBULE TARGETING AGENTS” (BPGbio, Inc., priority 2023, published 2024).
# Assays:
# [1] = test system: colchicine binding site of tubulin; assay: EBI labeling assay in MIA PaCa2 cells (Western blot); assay type: cell-based; conditions: 2 hours compound, then 2 hours 100 μM EBI, FIG. 2, FIG. 3
# Protocol: MIA PaCa2 cells were cultured in DMEM+10% FBS and 1% P/S. Cells were plated at 1.5-2×10^6 in 60 mm dishes. For drug treatments, cells were treated the day after plating with 0.1% DMSO or the compounds tested at the concentrations indicated in FIG. 2 for 2 hours.
# • Cells were treated with compounds for 2 hours at 37°, 5% CO2 (in the cell culture incubator), and then for an additional 2 hours with 100 μM EBI (with compounds present) under the same conditions. • Cells were then harvested with Trypsin and pelleted at 500 g for 3 minutes. • Cells were rinsed in 1 mL PBS and transferred to clean epi tubes. […] BCA assay plates were incubated for 15 minutes in the 37-degree incubator in the outer molecular lab. • After protein normalization (including addition of reducing Laemmli buffer from a 6× stock) samples were boiled at 95 degrees for 3 minutes and frozen for subsequent Western Blotting.
# Significance in difference of treated MIA PaCa-2 cells to 0.1% DMSO treated cells were tested by Student t test (* p<0.05; ** p<0.01; *** p<0.001).
# [2] = test system: DU145 cells; assay: In vitro potency, ATPlite 1Step (NTRC Oncolines); assay type: cell-based; conditions: Homo sapiens, DU-145
# Protocol: FIG. 12A-12E show the efficacy of Compound lin a prostate cancer xenograft model (DU145). A) In vitro potency of Compound 1 in DU145 cells as evaluated by ATPlite 1Step™ Perkin Elmer (performed by NTRC Oncolines). B) DU145 cells were implanted subcutaneously in nude mice and tumors were allowed to grow to a volume of 210 mm^3 followed by randomization of animals into three (3) groups (vehicle control, 75 mg/kg, 150 mg/kg Compound 1) with 12 animals per group. A Compound 1 solid dispersion was prepared prior to each dosing and administered by oral gavage two times a day (BID). Mean tumor volume of each group over time and the growth of tumor in each individual animal was graphed. For each individual animal of […] group TGI (%) was calculated based on the tumor growth inhibition of individual tumor at each given day of the study compared to the average of the group for that given day of the study. P-values were calculated using two-tailed distribution and two-sample equal variance (homoscedastic) for each group treated with Compound 1 for each given day of the study in reference to vehicle control. NS p>0.05; *p≤0.05; **p≤0.01; ***p p≤0.001; **** p≤0.0001. […] The level of two biomarkers, pHH3 and CCNB1 in each tissue was measured and graphed as the Min-to-Max plot and scatter plot of the level of each biomarker. […]
# [3] = test system: U87 cells; assay: In vitro potency in glioblastoma cells, Realtime-Glo assay; assay type: cell-based; conditions: Homo sapiens, U-87 MG, FIG. 14A, read-out: In vitro potency (anti-cancer activity)
# Source text: (§1) FIG. 14A-14E show the efficacy of Compound 1 in glioblastoma cell lines in vitro and in a glioblastoma rat model (C6). A) In vitro potency of Compound 1 in four different glioblastoma cell lines as evaluated by Realtime-Glo™ assay (C6, and U87 cells) or ATPlite 1Step™ Perkin Elmer (performed by NTRC Oncolines; T98G and A-172 cells). B) Study design overview: C6 rat glioma cells (3×10^5) were implanted into the right entorhinal cortex/subiculum region of male Sprague Dawley rats and tumor burden was assessed 14 days post inoculation using MRI and animals randomized into […] (4) groups (vehicle control, 5 mg/kg, 10 mg/kg, and 20 mg/kg Compound 1) with 4 animals per group. […] C) Body weights were measured every two days. […]
# (§2) Glioblastoma (GBM) is the most common and highly malignant form of primary brain tumor with a poor prognosis despite advances in treatments. […] Accordingly, the in vitro potency of Compound 1 was examined in four different glioblastoma cell lines as evaluated by Realtime-Glo™ assay (C6, and U87 cells) or ATPlite 1Step™ Perkin Elmer (performed by NTRC Oncolines; T98G and A-172 cells). […] Therefore, the in vivo tumor activity of Compound 1 was next assessed in Sprague Dawley rats implanted with C6 rat glioma cells into the right entorhinal cortex/subiculum region (AP: −7 mm; ML: 4.5 mm, DV: 5 mm). […]
# [4] = test system: C6 cells; assay: as above; assay type: cell-based; conditions: Rattus norvegicus, FIG. 14A, read-out: In vitro potency (anti-cancer activity)
# Source text: as §1, §2
# [5] = test system: DU145 tumors; assay: Prostate cancer xenograft model; assay type: in vivo, nude mice
# Protocol: FIG. 12A-12E show the efficacy of Compound lin a prostate cancer xenograft model (DU145). A) In vitro potency of Compound 1 in DU145 cells as evaluated by ATPlite 1Step™ Perkin Elmer (performed by NTRC Oncolines). B) DU145 cells were implanted subcutaneously in nude mice and tumors were allowed to grow to a volume of 210 mm^3 followed by randomization of animals into three (3) groups (vehicle control, 75 mg/kg, 150 mg/kg Compound 1) with 12 animals per group. A Compound 1 solid dispersion was prepared prior to each dosing and administered by oral gavage two times a day (BID). Mean tumor volume of each group over time and the growth of tumor in each individual animal was graphed. For each individual animal of vehicle group TGI (%) was calculated based on the tumor growth inhibition of individual tumor at each given day of the study compared to the average of the group for that given day of the study. P-values were calculated using two-tailed distribution and two-sample equal variance (homoscedastic) for each group treated with Compound 1 for each given day of the study in reference to vehicle control. NS p>0.05; *p≤0.05; **p≤0.01; ***p p≤0.001; **** p≤0.0001. C) Plasma and tumor tissues from vehicle (n=11), 75 mg/kg (n=12), and 150 mg/kg (n=12) groups were harvested at the end of the study. The concentration of Compound lin the plasma or tumor tissue was plotted as a column plot (Average t SEM) or Scatter Plot with Median. D) Tumor tissues from vehicle (n=12), 75 mg/kg (n=12) and 150 mg/kg (n=12) groups were harvested at the end of the study when each animal was sacrificed. The level of two biomarkers, pHH3 and CCNB1 in each tissue was measured and graphed as the Min-to-Max plot and scatter plot of the level of each biomarker. The line in the scatter plot indicates the group mean. E) Body weight of each individual animal was measured on days 0, 2, 5, 7, 9, 12, 14, 16, 19, 21, 23, and 26 and graphed using Graphpad Prism.
# Anti-tumor efficacy of Compound 1 was evaluated against three (3) different preclinical oncology mice models of colorectal cancer, prostate cancer, and lung adenocarcinoma (see Table 5 below). For this purpose, an oral formulation of Compound 1 was used.
# DU145 is an epithelial cell carcinoma derived from the metastatic site (brain). DU145 cells were implanted subcutaneously in nude mice and tumors were allowed to grow to an average volume of 106 mm^3 followed by randomization into three (3) groups consisting of vehicle control, 75 mg/kg and 150 mg/kg Compound 1 (12 animals per group). A Compound 1 solid dispersion was administered by oral gavage two times a day (BID). All animals, except one animal from vehicle group, survived throughout the 26 days of the study. Any animal that left the study prior to Day 26 was eliminated from all calculations. The percentage of tumor growth inhibition (TGI %) was calculated for each individual tumor. The mean tumor volume of each group over time and the growth of tumor in each individual animal is plotted below. The percentage of tumor growth inhibition (TGI %) was calculated for each individual animal.
# [6] = test system: C6 rat glioma cells; assay: Orthotopic syngeneic C6 glioma model; assay type: in vivo, Sprague Dawley rats
# Source text: as §1, §2
# [7] = biological target: P-gp (Homo sapiens, UniProt P08183); assay: P-gp substrate status; assay type: in vitro ADME
# Chain of P-gp (P08183 whole entry): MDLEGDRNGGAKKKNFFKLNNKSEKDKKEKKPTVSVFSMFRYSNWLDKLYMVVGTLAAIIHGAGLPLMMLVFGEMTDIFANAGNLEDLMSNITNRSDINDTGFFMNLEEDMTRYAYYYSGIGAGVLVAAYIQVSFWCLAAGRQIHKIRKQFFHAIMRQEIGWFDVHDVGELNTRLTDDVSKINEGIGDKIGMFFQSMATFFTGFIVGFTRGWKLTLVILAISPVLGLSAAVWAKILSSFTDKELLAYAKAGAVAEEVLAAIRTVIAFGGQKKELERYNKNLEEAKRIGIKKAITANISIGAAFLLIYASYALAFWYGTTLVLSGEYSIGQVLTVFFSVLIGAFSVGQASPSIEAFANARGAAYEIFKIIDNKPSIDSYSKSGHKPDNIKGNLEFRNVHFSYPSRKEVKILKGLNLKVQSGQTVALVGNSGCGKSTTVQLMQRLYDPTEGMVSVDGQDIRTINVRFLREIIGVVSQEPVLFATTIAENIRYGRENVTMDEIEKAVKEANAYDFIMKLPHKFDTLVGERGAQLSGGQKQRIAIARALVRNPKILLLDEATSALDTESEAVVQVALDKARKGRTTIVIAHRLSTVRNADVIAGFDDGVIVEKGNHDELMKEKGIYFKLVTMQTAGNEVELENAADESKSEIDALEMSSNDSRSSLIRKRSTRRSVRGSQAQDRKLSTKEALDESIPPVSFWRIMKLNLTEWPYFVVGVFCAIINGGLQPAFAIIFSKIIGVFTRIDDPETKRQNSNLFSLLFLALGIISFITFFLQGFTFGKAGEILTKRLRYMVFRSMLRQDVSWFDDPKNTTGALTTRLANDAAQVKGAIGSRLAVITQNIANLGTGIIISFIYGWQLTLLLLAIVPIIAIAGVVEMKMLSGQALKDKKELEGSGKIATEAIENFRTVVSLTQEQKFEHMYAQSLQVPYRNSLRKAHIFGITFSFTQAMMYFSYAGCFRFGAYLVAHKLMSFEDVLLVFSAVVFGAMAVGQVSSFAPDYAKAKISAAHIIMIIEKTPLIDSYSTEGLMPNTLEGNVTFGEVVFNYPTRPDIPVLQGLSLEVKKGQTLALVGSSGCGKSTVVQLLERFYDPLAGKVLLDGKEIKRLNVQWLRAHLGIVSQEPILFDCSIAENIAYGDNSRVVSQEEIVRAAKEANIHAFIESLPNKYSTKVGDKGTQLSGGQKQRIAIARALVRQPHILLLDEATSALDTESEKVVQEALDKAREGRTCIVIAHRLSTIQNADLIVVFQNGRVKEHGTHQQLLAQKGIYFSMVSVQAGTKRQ
structure (smiles),measurement,setting,value
"COc1ccccc1-c1nc(CNC(=O)c2ccccc2OC(F)F)n[nH]1 [Compound 1, 2-(difluoromethoxy)-N-[[5-(2-methoxyphenyl)-1H-1,2,4-triazol-3-yl]methyl]benzamide]",Formation of EBI:β-tubulin adducts,[1],"inhibited the formation of EBI (N,N′-ethylene-bis(iodoacetamide)):β-tubulin adducts"
same,IC50,[2]; DU145,77 nM
same,Emax,"[2]; DU145, in vitro, read-out: Maximum effect (%)",91%
same,IC50,[3],89 nM
same,IC50,[4],42 nM
same,TGI (%),"[5]; 75 mg/kg BID oral, day 26",22%
same,Level of the drug in the plasma and tumor tissue,"[5]; 75 mg/kg to 150 mg/kg, FIG. 12C",dose-dependent increase
same,"Maximum TGI (%), end of the study","[5]; 150 mg/kg BID oral (b152 prints 150 mg/g), day 26",38%
same,Body weight,"[5]; 26 days, FIG. 12E",no body weight loss related to the drug
same,Level of biomarkers CCNB1 and pHH3,"[5]; tumor tissue, FIG. 12D",increase
same,Animals still alive at day 60 post-treatment initiation,"[6]; 2 in each treatment group (5, 10, 20 mg/kg)",six
same,MRI imaging of surviving animals,[6]; FIG. 14E,reduction in tumor size and tumor fragmentation
same,P-gp substrate,[7],not a substrate for P-gp
